Earlier results, collected in patent US11395819B1, “Antiviral and virucidal lung nebulizer compositions and related treatment methods” (priority 2021, dated 2022).
Counter-ions that a name gives are not always drawn.

Columns and labels:
[1] = tested on: divergent influenza A strains and influenza B strain
[2] = tested on: avian H7N9 influenza virus; details: mice
[3] = given by inhalation

CN(C)CCC(c1ccc(Cl)cc1)c1ccccn1 (stereo not drawn) [Chlorpheniramine, chlorpheniramine maleate]
inhibitory activity against influenza [1]: potent inhibitory activity | protection from fatal challenge [2]: protects mice from fatal challenge | bronchodilation [3]: significant bronchodilation
